Experimental data reported in EP0652769B1, “VACCINES AGAINST METAZOAN PARASITES” (MALLINCKRODT VETERINARY, INC., priority 1992, dated 1994).
Values joined by “and” are separate entries in the source; they are usually repeats but may differ in a detail not shown here. Identical values can stand only once. Square brackets hold non-standard residues; d marks the D form. Peptide text beside a SMILES is read from it. * marks the point of attachment. Sta = CC(C)C[C@H](N)[C@@H](O)CC(=O)O; Isovaleryl = CC(C)CC(=O)*

Assays:
Oc-gal-GP = experiment: Inhibitor sensitivity of protease activity; type: biochemical, O.circumcincta; conditions: means of 2 observations
Oo-gal-GP = experiment: Inhibitor sensitivity of protease activity; type: biochemical, O.ostertagi; conditions: means of 2 observations
H-gal-GP [1] = experiment: Inhibitor sensitivity of protease activity; type: biochemical, H. contortus; conditions: peanut lectin purified H-gal-GP; means of 4 separate observations
Description: The optimum pH for this activity was determined over the pH range 4 to 9 using overlapping 0.1M acetate, phosphate or Tris buffers (Fig. 8). Optimal activity was found between pH 4.5 and 6.5. ii) Inhibitor sensitivity The inhibitor sensitivity of the proteinase activity was tested with 4 separate preparations of peanut lectin purified H-gal-GP. […]

H-gal-GP [2] = experiment: Azocasein proteolysis by H-gal-GP at pH 7 with a panel of proteinase inhibitors (neutral endopeptidase-like activity); type: biochemical, H.contortus; conditions: inhibitor 1mM, overnight at 37°C
Description: Proteinase activity was determined using azocasein as substrate in a microassay system. H-gal-GP (approximately 5ug in 20µl) was preincubated for 3Omin at 37°C with 2OOµl sterile 0.1M phosphate buffer, pH 7.0 containing no inhibitor (control), or inhibitor to a final concentration of 1mM. Inhibitors used were prepared as 100mM stock solutions in water except for 4-hydroxymercuribenzoate (4HMB) and pepstatin which were dissolved in methanol. Inhibitors tested were dithiothreitol (DTT); L-cysteine; reduced glutathione; 4HMB; N-ethylmaleimide; EDTA; 1,10 phenanthroline and pepstatin and were all purchased from Sigma. After preincubation 20µl azocasein (5mg/ml in sterile distilled water; Sigma) was added and the reaction mixtures incubated overnight at 37°C. Parallel blanks containing sterile water instead of H-gal-GP were included for each inhibitor tested and assays were performed in duplicate. The reactions were stopped by addition of an equal volume of 1M perchloric acid (BDH chemicals) and retained on ice for 15min to precipitate undigested protein which was subsequently pelleted by brief centrifugation at 11000g using a microfuge. The 0D₄₀₅ of the supernatant was determined using a "Monarch" microcentrifugal analyser (Instrumentation Laboratory, Warrington, UK). After subtraction of the appropriate reagent blank the degree of inhibition was expressed as the percent activity remaining compared to the control reaction.

[3] = system: extracts of adult T.vitrinus; experiment: Proteolytic activity of worm extracts in the presence of pepstatin; type: biochemical
Source text: Proteolytic activity in extracts of adult T.vitrinus was reduced by 40% in the presence of pepstatin. […] These observations indicate that T.vitrinus also contains aspartyl proteinase activity similar to Haemonchus and Ostertagia spp.

[4] = target: Haemonchus galactose-containing glycoprotein complex (H-gal-GP) (Haemonchus contortus); experiment: cell-based or functional assay
[5] = target: Ostertagia circumcincta galactose containing glycoprotein complex (Oc-gal-GP) (Ostertagia circumcincta); experiment: cell-based or functional assay
[6] = target: Ostertagia ostertagi galactose-containing glycoprotein complex (Oo-gal-GP) (Ostertagia ostertagi); experiment: cell-based or functional assay
[7] = first analysis, 0.1M phosphate buffer
[8] = second analysis, same batch of H-gal-GP

Compound	percent activity remaining in the presence of inhibitor (Oc-gal-GP) [%]	percent activity remaining in the presence of inhibitor (Oo-gal-GP) [%]	percent activity remaining in the presence of inhibitor (H-gal-GP [1]) [%]	% activity remaining (H-gal-GP [2]; [7]) [%]	% activity remaining (H-gal-GP [2]; [8]) [%]	other results
O=S(=O)(F)Cc1ccccc1 [PMSF]	104	84	100			
CC(C)CC(=O)N[C@H](C(=O)N[C@H](C(=O)N[C@@H](CC(C)C)[C@@H](O)CC(=O)N[C@@H](C)C(=O)N[C@@H](CC(C)C)[C@@H](O)CC(=O)O)C(C)C)C(C)C [Pepstatin, pepstatin] (Isovaleryl-VV[Sta]A[Sta]-OH)	23	0	8.5	75	85	Proteolytic activity reduced [3]: 40%
N[C@@H](CCC(=O)N[C@@H](CS)C(=O)NCC(=O)O)C(=O)O [Glutathione, reduced glutathione]				87	85	
O[C@H](CS)[C@H](O)CS (racemic) [Dithiothreitol, dithiothreitol]				48	44	
CC(C)C[C@H](NC(=O)[C@H]1O[C@@H]1C(=O)O)C(=O)NCCCCN=C(N)N [E64]	101	101	87.8			
Serum of control lamb (injected with adjuvant only) (antibody)						% Inhibition of Proteolysis (Assay 1) [4]: 0%; % Inhibition of Proteolysis (Assay 2) [4]: 2%
O=C(O)CN(CCN(CC(=O)O)CC(=O)O)CC(=O)O [EDTA]			97.8	25	10	
c1cnc2c(c1)ccc1cccnc12 [1, 10 Phenanthroline, 1,10 phenanthroline]	94	99	97	26	23	
pepstatin (peptide)						percent activity remaining in the presence of inhibitor [5]: 23%; percent activity remaining in the presence of inhibitor [6]: 0%; % activity remaining (azocasein proteolysis at pH7) [4]: 75% and 85%; percent activity remaining in the presence of inhibitor [4]: 8.5%
CCN1C(=O)C=CC1=O [N-ethylmaleimide]				74	77	
N[C@@H](CS)C(=O)O [Cysteine, L-cysteine]					0	
O=C([O-])c1cc[c]([Hg][OH])cc1 [4-hydroxymercuribenzoate]				88	91	
